Where two headings read alike, the source gives them in different places.
Molecular target: T1, human Syk (GST-Syk) (Homo sapiens, UniProt P43405)
T1 construct: A cDNA fragment encoding human Syk openreading frame was cloned; made in house; host or cells: Sf21 insect cells (baculovirus, transfer vector pAcG2T)
Assay: Syk tyrosine kinase inhibitory assay
Type: biochemical
Excerpt: [Syk Tyrosine Kinase Inhibitory Assay]
(1) Preparation of Syk Protein
A cDNA fragment encoding human Syk openreading frame was cloned from total RNA of human Burkitt's lymphoma B cell lines, Raji (American Type Culture Collection), with the use of RT-PCR method. The cDNA fragment was inserted into pAcG2T (Pharmingen, San Diego, Calif.) to construct a baculovirus transfer vector. Then the vector, together with the linearized baculovirus (BaculoGold™, Pharmingen), was used to transfect Sf21 cells (Invitrogen, San Diego, Calif.).
Generated recombinant baculovirus was cloned and amplified in Sf21 cells. Sf21 cells were infected with this amplified high titer virus to produce a chimeric protein of Syk kinase fused by glutathione-S-transferase (GST).
The resulting GST-Syk was purified with the use of glutathione column (Amersham Pharmacia Biotech AB, Uppsala, Sweden) according to the manufacturer's instruction.
(2) Synthesize of a Peptide
Next, a peptide fragment of 30 residues including two tyrosine residues, […], was synthesized by a peptide synthesizer. The N-terminal of the fragment was then biotinylated to obtain biotinylated activation loop peptide (AL).
(3) The Measurement of Syk Tyrosine Kinase Activity
All reagents were diluted with the Syk kinase assay buffer (50 mM Tris-HCl (pH 8.0), 10 mM MgCl2, 0.1 mM Na3VO4, 0.1% BSA, 1 mM DTT). First, a mixture (35 μl) including […] of GST-Syk and 0.5 μg of AL was put in each well in 96-well plates. Then 5 μl of a test compound in the presence of 2.5% dimethylsulfoxide (DMSO) was added to each well. To this mixture was added […] (10 μl) to initiate the kinase reaction. The final reaction mixture (50 μl) consists of 0.65 nM GST-Syk, 3 μM AL, 30 μM ATP, a test compound, 0.25% DMSO, and a Syk kinase assay buffer.
The mixture was incubated for 1 hr at room temperature, and the reaction was terminated by the addition of 120 μl of termination buffer (50 mM Tris-HCl (pH 8.0), 10 mMEDTA, 500 mM NaCl, 0.1% BSA). The mixture was transferred to streptavidin-coated plates and incubated for 30 min at room temperature to combine biotin-AL to the plates. After washing the plates with Tris-buffered saline (TBS) (50 mM Tris-HCl (pH 8.0), 138 mM NaCl, 2.7 mM KCl) containing 0.05% Tween-20 for 3 times, 100 μl of antibody solution consisting of 50 mM Tris-HCl (pH 8.0), 138 mM NaCl, 2.7 mM KCl, 1% BSA, 60 ng/ml anti-phosphotyrosine monoclonal antibody, 4G10 (Upstate Biotechnology), which is labeled with europium by Amersham Pharmacia's kit in advance, was added and incubated at room temperature for 60 min. After washing, 100 μl of enhancement solution (Amersham pharmacia Biotech) was added and then time-resolved fluorescence was measured by multi-label counter ARVO (Wallac Oy, Finland) at 340 nm for excitation and 615 nm for emission with 400 msec of delay and 400 msec of window.

[1] = Table 11, read-out: Activity grade
[2] = in vitro, compounds as yielded by solid phase synthesis, purity about 40 to 90%, read-out: Activity grade (IC50 class)
[3] = Table 13, read-out: Activity grade

Row | Structure (SMILES) | IC50 [2] [µM] | further results
1 | COc1cc(-c2cc3nccn3c(Nc3ccccc3)n2)ccc1NCCCN1CCN(C)CC1 [Example 12-39] | – | IC50 [1]: < 0.5 µM
2 | COc1ccc(-c2cc3nccn3c(Nc3ccc(C(=N)N)cc3)n2)cc1OC [Example 11-67] | < 0.5 | –
3 | COc1cc(-c2cc3nccn3c(Nc3cccc(S(C)(=O)=O)c3)n2)ccc1N1CCOCC1 [Example 12-60] | – | IC50 [1]: < 0.5 µM
4 | COc1ccc(-c2cc3nccn3c(Nc3ccc(OCCN4CCOCC4)cc3)n2)cc1OC [Example 11-91] | < 0.5 | –
5 | CCSc1nc(-c2ccc(OC)c(OCC3CCCCO3)c2)cc2nccn12 (stereo not drawn) [Example 4-5] | 0.5 to 2 | –
6 | COc1ccc(-c2cc3nccn3c(N3CCN(c4ccccn4)CC3)n2)cc1OC [Example 9-38] | 0.5 to 2 | –
7 | CCSc1nc(-c2ccc(O)c(O)c2)cc2nccn12 [material for Example 6, 4-(5-Ethylsulfanyl-imidazo[1,2-c]pyrimidin-7-yl)-benzene-1,2-diol] | 2 to 10 | –
8 | COc1ccc(-c2cc3ncnn3c(Oc3ccc(CCC(=O)O)cc3)n2)cc1OC [Example 14-12] | – | IC50 [3]: 0.5 to 2 µM
9 | COc1ccc(-c2cc3nccn3c(Nc3ccc(S(C)(=O)=O)cc3)n2)cc1OC [Example 11-127] | < 0.5 | –
10 | COc1ccc(-c2cc3nccn3c(Nc3ccccc3Cl)n2)cc1OC [Example 11-55] | < 0.5 | –
11 | COc1ccc(Nc2nc(-c3ccc(OCCN4CCOCC4)c(OC)c3)cc3nccn23)cc1 [Example 9-96] | < 0.5 | –
12 | COc1ccc(-c2cc3nccn3c(NCCc3ccccn3)n2)cc1OC [Example 9-84] | 0.5 to 2 | –
13 | CCSc1nc(-c2ccc(OC(=O)OC)c(OC)c2)cc2nccn12 [Example 3-11] | < 0.5 | –
14 | CCOC(=O)Cc1ccc(Nc2nc(-c3ccc(OC)c(OC)c3)cc3nccn23)cc1 [Example 9-23] | < 0.5 | –
15 | COc1ccc(-c2cc3nccn3c(NC3CCC(C(=O)O)CC3)n2)cc1OC (stereo not drawn) [Example 9-31] | 0.5 to 2 | –
16 | COc1ccc(Nc2nc(-c3ccc(N4CCOCC4)c(OC)c3)cc3nccn23)cc1 [Example 12-37] | – | IC50 [1]: < 0.5 µM
17 | COc1ccc(-c2cc3nccn3c(Nc3cccc(S(=O)(=O)CCO)c3)n2)cc1OC [Example 11-27] | < 0.5 | –

Row | Structure (SMILES) | IC50 [2] [µM] | further results
18 | CCOc1ccc(-c2cc3nccn3c(SCC)n2)cc1OC [Example 3-1] | < 0.5 | –
19 | CCSc1nc(-c2ccc(S(=O)(=O)N3CCN(C)CC3)c(OC)c2)cc2nccn12 [Example 2-9] | – | Activity grade (IC50 class) (in vitro, compounds as yielded by solid phase synthesis, purity about 40 to 90%): C-D
20 | CCSc1nc(-c2ccc(SC)cc2)cc2nccn12 [Example 1-12] | 0.5 to 2 | –
21 | CCSc1nc(-c2ccc(OC)c(S(=O)(=O)N3CCN(CCO)CC3)c2)cc2nccn12 [Example 2-3] | < 0.5 | –
22 | COc1ccc(-c2cc3nccn3c(SCCNC(=O)OC(C)(C)C)n2)cc1OC [Example 14-24] | – | IC50 [3]: 0.5 to 2 µM
23 | COc1ccc(-c2cc3nccn3c(Nc3cccc(Cl)c3)n2)cc1OC [Example 12-11] | – | IC50 [1]: < 0.5 µM
24 | COc1ccc(-c2cc3nccn3c(Sc3nc[nH]n3)n2)cc1OC [Example 13-29] | < 0.5 | –
25 | COc1ccc(-c2cc3nccn3c(Sc3ccc4c(c3)CNCC4)n2)cc1OC [Example 13-14] | < 0.5 | –
26 | CCSc1nc(-c2ccc(OCC3CCCCO3)c(OC)c2)cc2nccn12 (stereo not drawn) [Example 3-4] | < 0.5 | –
27 | COc1ccc(Nc2nc(-c3ccc(N(C)C)c(OC)c3)cc3nccn23)cc1 [Example 12-52] | – | IC50 [1]: < 0.5 µM
28 | COc1ccc(Nc2nc(-c3ccc(OC)c(OC)c3)cc3nccn23)cc1NC(=O)CN1CCOCC1 [Example 11-83] | 0.5 to 2 | –
29 | COc1ccc(-c2cc3nccn3c(SCC3CC3)n2)cc1OC [Example 9-7] | < 0.5 | –
30 | CCSc1nc(-c2ccc(OC)c(N(C)CCCN(C)C)c2)cc2nccn12 [Example 17-5] | – | IC50 (Table 16, read-out: Activity grade): 0.5 to 2 µM
31 | CCSc1nc(-c2ccc(C)c(S(=O)(=O)N3CCN(CCO)CC3)c2)cc2nccn12 [Example 2-1] | 0.5 to 2 | –
32 | COc1ccc(-c2cc3nccn3c(Sc3ccc(CCCC(=O)O)cc3)n2)cc1OC [Example 13-21] | 2 to 10 | –
33 | COc1ccc(-c2cc3nccn3c(Nc3ccc([N+](=O)[O-])cc3)n2)cc1OC [Example 11-33] | < 0.5 | –

Reference: patent US6911443B2 (Bayer Aktiengesellschaft, priority 2000, dated 2005)
